Where two headings read alike, the source gives them in different places.
Legend:
Assay in all cases: biochemical
Type in all cases: binding
[1] = biological target: 468 kinases including some pathogenic mutants (Homo sapiens, UniProt P42336, H1047Y); details: read-out: Percent Control
[2] = biological target: 468 kinases including some pathogenic mutants (Homo sapiens, UniProt Q96J92); details: WNK4 (Entrez WNK4), 1000 nM; read-out: Percent Control
[3] = biological target: 468 kinases including some pathogenic mutants (Homo sapiens, UniProt P31749); details: AKT1 (Entrez AKT1), 100 nM; read-out: Percent Control
[4] = biological target: 468 kinases including some pathogenic mutants (Homo sapiens, UniProt O95382); details: ASK2 (Entrez MAP3K6), 100 nM; read-out: Percent Control
[5] = biological target: 468 kinases including some pathogenic mutants (Homo sapiens, UniProt Q04759); details: PRKCQ (Entrez PRKCQ), 100 nM; read-out: Percent Control
[6] = biological target: 468 kinases including some pathogenic mutants (Homo sapiens, UniProt P29597); details: read-out: Percent Control
[7] = biological target: 468 kinases including some pathogenic mutants (Homo sapiens, UniProt Q9HC98); details: NEK6 (Entrez NEK6), 1000 nM; read-out: Percent Control
[8] = biological target: 468 kinases including some pathogenic mutants (Homo sapiens, UniProt Q13163); details: MEK5 (Entrez MAP2K5), 100 nM; read-out: Percent Control
[9] = biological target: 468 kinases including some pathogenic mutants (Homo sapiens, UniProt Q96PY6); details: NEK1 (Entrez NEK1), 1000 nM; read-out: Percent Control
[10] = biological target: 468 kinases including some pathogenic mutants (Homo sapiens, UniProt Q9UIK4); details: DAPK2 (Entrez DAPK2), 100 nM; read-out: Percent Control
[11] = biological target: 468 kinases including some pathogenic mutants (Homo sapiens, UniProt O00750); details: PIK3C2B (Entrez PIK3C2B), 1000 nM; read-out: Percent Control
[12] = biological target: 468 kinases including some pathogenic mutants (Homo sapiens, UniProt P06241); details: FYN (Entrez FYN), 100 nM; read-out: Percent Control
[13] = biological target: 468 kinases including some pathogenic mutants (Homo sapiens, UniProt Q04912); details: MST1R (Entrez MST1R), 100 nM; read-out: Percent Control
[14] = biological target: 468 kinases including some pathogenic mutants (Homo sapiens, UniProt Q9Y2H1); details: NDR2 (Entrez STK38L), 100 nM; read-out: Percent Control
[15] = biological target: 468 kinases including some pathogenic mutants (Homo sapiens, UniProt P23458); details: read-out: Percent Control
[16] = biological target: 468 kinases including some pathogenic mutants (Homo sapiens, UniProt P36896); details: ACVR1B (Entrez ACVR1B), 100 nM; read-out: Percent Control
[17] = biological target: 468 kinases including some pathogenic mutants (Homo sapiens, UniProt P23443); details: S6K1 (Entrez RPS6KB1), 1000 nM; read-out: Percent Control
[18] = biological target: 468 kinases including some pathogenic mutants (Homo sapiens, UniProt P36888); details: FLT3-autoinhibited (Entrez FLT3), 100 nM; read-out: Percent Control
[19] = biological target: 468 kinases including some pathogenic mutants (Homo sapiens, UniProt P51451); details: BLK (Entrez BLK), 100 nM; read-out: Percent Control
[20] = biological target: 468 kinases including some pathogenic mutants (Homo sapiens, UniProt Q13627); details: DYRK1A (Entrez DYRK1A), 100 nM; read-out: Percent Control
[21] = biological target: 468 kinases including some pathogenic mutants (Homo sapiens, UniProt Q9UF33); details: EPHA6 (Entrez EPHA6), 100 nM; read-out: Percent Control
[22] = biological target: 468 kinases including some pathogenic mutants (Homo sapiens, UniProt Q7KZI7); details: MARK2 (Entrez MARK2), 100 nM; read-out: Percent Control
[23] = biological target: 468 kinases including some pathogenic mutants (Homo sapiens, UniProt P11802); details: 100 nM, read-out: Percent Control
[24] = biological target: 468 kinases including some pathogenic mutants (Homo sapiens, UniProt Q9H4A3); details: WNK1 (Entrez WNK1), 1000 nM; read-out: Percent Control
[25] = biological target: 468 kinases including some pathogenic mutants (Homo sapiens, UniProt Q59H18); details: TNNI3K (Entrez TNNI3K), 100 nM; read-out: Percent Control
[26] = biological target: 468 kinases including some pathogenic mutants (Homo sapiens, UniProt Q06418); details: TYRO3 (Entrez TYRO3), 100 nM; read-out: Percent Control
[27] = biological target: 468 kinases including some pathogenic mutants (Homo sapiens, UniProt Q9BZL6); details: PRKD2 (Entrez PRKD2), 100 nM; read-out: Percent Control
[28] = biological target: 468 kinases including some pathogenic mutants (Homo sapiens, UniProt O14578); details: CIT (Entrez CIT), 100 nM; read-out: Percent Control

Chain of 468 kinases including some pathogenic mutants (Homo sapiens, UniProt P11802) (P11802 whole entry, change not shown): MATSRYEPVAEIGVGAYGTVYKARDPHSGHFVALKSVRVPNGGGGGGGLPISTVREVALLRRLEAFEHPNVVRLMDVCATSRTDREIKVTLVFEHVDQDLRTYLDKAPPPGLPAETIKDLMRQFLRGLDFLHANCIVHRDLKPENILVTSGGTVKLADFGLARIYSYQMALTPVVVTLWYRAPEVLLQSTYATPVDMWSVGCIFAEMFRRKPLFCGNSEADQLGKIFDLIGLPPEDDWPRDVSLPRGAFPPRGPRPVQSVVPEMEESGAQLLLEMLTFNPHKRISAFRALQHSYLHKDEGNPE
Chain of 468 kinases including some pathogenic mutants (Homo sapiens, UniProt P23458) (P23458 whole entry, change not shown): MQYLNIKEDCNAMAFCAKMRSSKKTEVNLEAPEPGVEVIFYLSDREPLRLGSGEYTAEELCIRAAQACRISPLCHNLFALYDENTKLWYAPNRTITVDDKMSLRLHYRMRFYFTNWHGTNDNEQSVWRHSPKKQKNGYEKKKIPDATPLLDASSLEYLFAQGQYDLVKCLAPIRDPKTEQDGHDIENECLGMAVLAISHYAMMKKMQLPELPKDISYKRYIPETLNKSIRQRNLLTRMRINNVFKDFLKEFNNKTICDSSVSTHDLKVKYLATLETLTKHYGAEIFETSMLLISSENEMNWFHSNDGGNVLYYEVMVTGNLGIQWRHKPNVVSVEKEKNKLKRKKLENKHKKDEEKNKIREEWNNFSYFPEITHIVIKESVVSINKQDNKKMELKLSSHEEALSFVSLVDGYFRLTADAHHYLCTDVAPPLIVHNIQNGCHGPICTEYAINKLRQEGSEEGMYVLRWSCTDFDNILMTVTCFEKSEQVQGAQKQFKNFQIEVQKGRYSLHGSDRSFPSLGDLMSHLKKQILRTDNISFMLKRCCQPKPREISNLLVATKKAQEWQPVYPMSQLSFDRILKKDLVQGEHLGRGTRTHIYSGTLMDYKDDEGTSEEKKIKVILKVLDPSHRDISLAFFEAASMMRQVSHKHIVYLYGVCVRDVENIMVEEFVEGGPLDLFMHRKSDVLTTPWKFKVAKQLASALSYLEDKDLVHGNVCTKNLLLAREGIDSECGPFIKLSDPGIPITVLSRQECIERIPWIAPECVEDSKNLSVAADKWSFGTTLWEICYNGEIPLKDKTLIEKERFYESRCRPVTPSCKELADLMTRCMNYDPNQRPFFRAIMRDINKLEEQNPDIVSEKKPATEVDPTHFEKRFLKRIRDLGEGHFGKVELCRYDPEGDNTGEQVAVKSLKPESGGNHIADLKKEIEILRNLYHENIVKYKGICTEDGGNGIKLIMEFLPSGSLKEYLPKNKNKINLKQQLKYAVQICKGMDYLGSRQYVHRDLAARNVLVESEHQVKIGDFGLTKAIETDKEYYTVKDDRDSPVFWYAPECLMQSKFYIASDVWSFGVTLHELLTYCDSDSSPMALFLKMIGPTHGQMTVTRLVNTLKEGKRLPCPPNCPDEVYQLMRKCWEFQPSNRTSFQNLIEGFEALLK
Chain of 468 kinases including some pathogenic mutants (Homo sapiens, UniProt P29597) (P29597 whole entry, change not shown): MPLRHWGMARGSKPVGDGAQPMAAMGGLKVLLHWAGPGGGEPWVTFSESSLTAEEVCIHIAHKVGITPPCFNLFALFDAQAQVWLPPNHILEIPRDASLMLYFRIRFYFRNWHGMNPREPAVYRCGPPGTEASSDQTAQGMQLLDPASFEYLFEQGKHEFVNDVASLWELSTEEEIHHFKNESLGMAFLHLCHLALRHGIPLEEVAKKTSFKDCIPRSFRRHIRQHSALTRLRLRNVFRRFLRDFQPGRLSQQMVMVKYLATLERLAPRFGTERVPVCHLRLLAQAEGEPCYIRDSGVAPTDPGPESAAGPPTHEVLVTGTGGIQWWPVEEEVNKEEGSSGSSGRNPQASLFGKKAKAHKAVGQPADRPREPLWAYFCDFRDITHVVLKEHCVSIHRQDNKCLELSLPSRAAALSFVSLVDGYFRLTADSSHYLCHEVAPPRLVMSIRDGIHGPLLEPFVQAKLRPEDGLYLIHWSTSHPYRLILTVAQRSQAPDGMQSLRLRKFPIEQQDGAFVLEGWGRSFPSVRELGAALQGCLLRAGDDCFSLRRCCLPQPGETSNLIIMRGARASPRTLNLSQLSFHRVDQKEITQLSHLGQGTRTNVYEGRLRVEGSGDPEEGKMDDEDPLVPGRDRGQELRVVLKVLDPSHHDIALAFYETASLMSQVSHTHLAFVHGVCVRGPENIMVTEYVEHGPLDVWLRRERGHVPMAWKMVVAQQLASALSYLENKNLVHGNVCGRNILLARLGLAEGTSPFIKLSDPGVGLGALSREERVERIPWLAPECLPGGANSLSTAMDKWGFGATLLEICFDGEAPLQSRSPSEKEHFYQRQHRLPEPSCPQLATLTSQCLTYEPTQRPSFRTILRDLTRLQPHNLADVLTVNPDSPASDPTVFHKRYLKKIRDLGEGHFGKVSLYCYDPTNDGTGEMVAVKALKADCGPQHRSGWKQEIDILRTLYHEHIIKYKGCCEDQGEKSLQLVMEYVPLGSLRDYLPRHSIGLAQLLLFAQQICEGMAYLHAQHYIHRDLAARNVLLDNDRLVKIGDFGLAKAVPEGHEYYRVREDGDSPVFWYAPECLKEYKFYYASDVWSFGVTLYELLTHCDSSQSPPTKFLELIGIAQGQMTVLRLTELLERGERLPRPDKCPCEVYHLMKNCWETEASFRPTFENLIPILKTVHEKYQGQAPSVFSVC
Chain of 468 kinases including some pathogenic mutants (Homo sapiens, UniProt P42336, H1047Y) (P42336 whole entry H1047Y): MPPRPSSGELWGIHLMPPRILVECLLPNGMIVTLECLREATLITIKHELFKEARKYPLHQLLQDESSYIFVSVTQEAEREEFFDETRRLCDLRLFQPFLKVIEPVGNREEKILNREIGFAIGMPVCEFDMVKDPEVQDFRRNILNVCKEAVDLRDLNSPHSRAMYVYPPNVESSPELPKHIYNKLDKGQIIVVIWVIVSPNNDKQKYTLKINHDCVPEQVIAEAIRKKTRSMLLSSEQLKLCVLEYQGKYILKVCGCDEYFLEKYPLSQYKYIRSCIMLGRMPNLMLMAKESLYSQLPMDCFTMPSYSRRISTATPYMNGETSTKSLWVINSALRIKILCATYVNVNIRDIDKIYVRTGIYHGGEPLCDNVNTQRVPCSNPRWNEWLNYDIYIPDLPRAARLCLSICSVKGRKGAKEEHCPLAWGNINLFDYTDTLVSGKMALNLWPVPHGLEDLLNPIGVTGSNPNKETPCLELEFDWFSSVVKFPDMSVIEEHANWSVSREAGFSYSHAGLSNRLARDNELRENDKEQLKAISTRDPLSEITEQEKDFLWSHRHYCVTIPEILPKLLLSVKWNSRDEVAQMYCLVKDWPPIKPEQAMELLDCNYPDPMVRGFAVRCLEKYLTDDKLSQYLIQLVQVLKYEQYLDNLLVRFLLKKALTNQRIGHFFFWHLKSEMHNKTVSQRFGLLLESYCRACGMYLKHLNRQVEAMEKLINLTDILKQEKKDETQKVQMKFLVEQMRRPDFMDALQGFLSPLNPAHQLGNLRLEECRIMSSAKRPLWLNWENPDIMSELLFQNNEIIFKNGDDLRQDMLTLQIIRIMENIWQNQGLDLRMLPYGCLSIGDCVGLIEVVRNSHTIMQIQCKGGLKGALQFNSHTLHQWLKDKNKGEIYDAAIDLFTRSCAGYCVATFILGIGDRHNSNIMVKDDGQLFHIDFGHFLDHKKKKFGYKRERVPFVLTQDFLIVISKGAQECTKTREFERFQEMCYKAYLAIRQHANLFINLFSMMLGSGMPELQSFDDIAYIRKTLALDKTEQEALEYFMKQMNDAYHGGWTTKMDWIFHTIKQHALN
Chain of 468 kinases including some pathogenic mutants (Homo sapiens, UniProt Q96PY6) (Q96PY6 whole entry, change not shown): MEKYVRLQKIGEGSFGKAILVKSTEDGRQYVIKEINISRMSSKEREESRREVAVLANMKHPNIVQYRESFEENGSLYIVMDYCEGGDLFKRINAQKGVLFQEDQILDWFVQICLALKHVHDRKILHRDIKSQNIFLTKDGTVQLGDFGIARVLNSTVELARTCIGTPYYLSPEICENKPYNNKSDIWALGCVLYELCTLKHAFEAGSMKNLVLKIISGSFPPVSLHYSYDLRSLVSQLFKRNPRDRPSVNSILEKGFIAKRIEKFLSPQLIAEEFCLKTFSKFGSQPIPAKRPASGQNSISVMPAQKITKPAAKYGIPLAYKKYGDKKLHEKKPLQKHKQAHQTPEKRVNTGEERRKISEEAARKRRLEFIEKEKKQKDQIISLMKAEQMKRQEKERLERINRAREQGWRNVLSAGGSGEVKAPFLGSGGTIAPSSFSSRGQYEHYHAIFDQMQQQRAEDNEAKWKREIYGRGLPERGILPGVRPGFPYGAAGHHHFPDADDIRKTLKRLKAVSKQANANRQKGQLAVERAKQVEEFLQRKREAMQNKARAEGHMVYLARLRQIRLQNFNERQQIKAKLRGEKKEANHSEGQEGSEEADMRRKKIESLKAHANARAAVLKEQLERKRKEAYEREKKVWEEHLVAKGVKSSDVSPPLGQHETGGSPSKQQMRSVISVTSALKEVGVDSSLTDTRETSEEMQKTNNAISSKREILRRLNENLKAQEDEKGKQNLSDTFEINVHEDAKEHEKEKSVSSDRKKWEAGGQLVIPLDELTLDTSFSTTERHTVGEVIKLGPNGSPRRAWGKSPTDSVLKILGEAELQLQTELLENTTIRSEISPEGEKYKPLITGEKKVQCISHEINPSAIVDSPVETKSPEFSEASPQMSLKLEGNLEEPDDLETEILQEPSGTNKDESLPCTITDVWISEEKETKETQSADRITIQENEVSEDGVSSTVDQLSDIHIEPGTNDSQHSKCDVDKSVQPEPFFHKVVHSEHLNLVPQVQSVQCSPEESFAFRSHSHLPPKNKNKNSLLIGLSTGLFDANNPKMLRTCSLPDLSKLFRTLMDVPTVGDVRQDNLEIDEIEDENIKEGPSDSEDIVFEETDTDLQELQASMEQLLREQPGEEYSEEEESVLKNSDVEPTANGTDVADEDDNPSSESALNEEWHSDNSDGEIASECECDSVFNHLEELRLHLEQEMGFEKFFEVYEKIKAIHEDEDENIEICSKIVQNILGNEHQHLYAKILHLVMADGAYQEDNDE

Question: With `CN1C(=O)[C@@H](N2CCc3c(nn(Cc4ccccc4)c3C(N)=O)C2=O)COc2cc(Cl)ccc21` [Compound 10, (S)-2-benzyl-6-(8-chloro-5-methyl-4-oxo-2,3,4,5-tetrahydrobenzo[b][1,4]oxazepin-3-yl)-7-oxo-4,5,6,7-tetrahydro-2H-pyrazolo[3,4-c]pyridine-3-carboxamide] as the molecule, how does the remaining activity at 1 µM [1] read?
Answer: Its remaining activity at 1 µM is 100%.

Question: And the remaining activity at 1 µM [2]?
Answer: The remaining activity at 1 µM was 100%.

Question: And the remaining activity at 0.1 µM [3]?
Answer: Its remaining activity at 0.1 µM is 87%.

Question: What about the remaining activity at 0.1 µM [4] of the same molecule?
Answer: The remaining activity at 0.1 µM was 76%.

Question: What about the remaining activity at 0.1 µM [5] of the same molecule?
Answer: Its remaining activity at 0.1 µM is 88%.

Question: What about the remaining activity at 0.1 µM ([6]; TYK2(JH1domain-catalytic) (Entrez TYK2), 100 nM) of the same molecule?
Answer: The remaining activity at 0.1 µM was 72%.

Question: What about the remaining activity at 1 µM [6] of the same molecule?
Answer: Its remaining activity at 1 µM is 100%.

Question: What about the remaining activity at 1 µM [7] of the same molecule?
Answer: Its remaining activity at 1 µM is 100%.

Question: And the remaining activity at 0.1 µM [8]?
Answer: The remaining activity at 0.1 µM was 89%.

Question: And the remaining activity at 1 µM [9]?
Answer: The remaining activity at 1 µM was 100%.

Question: And the remaining activity at 0.1 µM [10]?
Answer: The remaining activity at 0.1 µM was 70%.

Question: What about the remaining activity at 1 µM [11] of the same molecule?
Answer: The remaining activity at 1 µM was 100%.

Question: What about the remaining activity at 0.1 µM [12] of the same molecule?
Answer: Its remaining activity at 0.1 µM is 71%.

Question: What about the remaining activity at 0.1 µM [13] of the same molecule?
Answer: Its remaining activity at 0.1 µM is 82%.

Question: What about the remaining activity at 0.1 µM [14] of the same molecule?
Answer: Its remaining activity at 0.1 µM is 71%.

Question: And the remaining activity at 0.1 µM ([15]; JAK1(JH1domain-catalytic) (Entrez JAK1), 100 nM)?
Answer: Its remaining activity at 0.1 µM is 83%.

Question: What about the remaining activity at 0.1 µM [15] of the same molecule?
Answer: Its remaining activity at 0.1 µM is 97%.

Question: What about the remaining activity at 0.1 µM [16] of the same molecule?
Answer: The remaining activity at 0.1 µM was 89%.

Question: What about the remaining activity at 1 µM [17] of the same molecule?
Answer: The remaining activity at 1 µM was 100%.

Question: What about the remaining activity at 0.1 µM [18] of the same molecule?
Answer: The remaining activity at 0.1 µM was 84%.

Question: And the remaining activity at 0.1 µM [19]?
Answer: Its remaining activity at 0.1 µM is 84%.

Question: And the remaining activity at 0.1 µM [20]?
Answer: The remaining activity at 0.1 µM was 89%.

Question: What about the remaining activity at 0.1 µM [21] of the same molecule?
Answer: Its remaining activity at 0.1 µM is 66%.

Question: And the remaining activity at 0.1 µM [22]?
Answer: The remaining activity at 0.1 µM was 78%.

Question: And the remaining activity at 0.1 µM ([23]; CDK4 (Entrez CDK4))?
Answer: The remaining activity at 0.1 µM was 94%.

Question: And the remaining activity at 0.1 µM ([23]; CDK4-cyclinD1 (Entrez CDK4))?
Answer: The remaining activity at 0.1 µM was 77%.

Question: What about the remaining activity at 0.1 µM ([23]; CDK4-cyclinD3 (Entrez CDK4)) of the same molecule?
Answer: Its remaining activity at 0.1 µM is 92%.

Question: What about the remaining activity at 1 µM [24] of the same molecule?
Answer: The remaining activity at 1 µM was 100%.

Question: What about the remaining activity at 0.1 µM [25] of the same molecule?
Answer: The remaining activity at 0.1 µM was 82%.

Question: What about the remaining activity at 0.1 µM [26] of the same molecule?
Answer: Its remaining activity at 0.1 µM is 100%.

Question: And the remaining activity at 0.1 µM [27]?
Answer: The remaining activity at 0.1 µM was 84%.

Question: And the remaining activity at 0.1 µM [28]?
Answer: Its remaining activity at 0.1 µM is 95%.

— paper PMC12090182, “Repurposing of the RIPK1-Selective Benzo[1,4]oxazepin-4-one Scaffold for the Development of a Type III LIMK1/2 Inhibitor” (ACS Chemical Biology, 2025)
